Legend:
[1] = target: apo-glucose dehydrogenase (Acinetobacter calcoaceticus, UniProt P13650); experiment: activation of apo-glucose dehydrogenase by co-factor PQQ, electrochemical current; format: biochemical
Description: FIG. 8 is a schematic showing a specific example of glucose being oxidized to gluconone by the holo-enzyme glucose dehydrogenase. In this case the co-enzyme is PQQ and a common mediator used to transducer electrical current through a working electrode is ferrocene. This is another type of configuration in glucometers today.
FIG. 9 is a schematic showing the loss of glucose dehydrogenase activity when the specific co-factor PQQ is removed. As an apo-enzyme, […] is not capable of oxidizing glucose. As a result, transduction of current is blocked.
PQQ was added to apo-enzyme in doses ranging from 100 pM to 100 nM. […] In this case, distinctions were observed by 60 sec.

ceruloplasmin = target: T1, ceruloplasmin (Homo sapiens, UniProt P00450); conditions: order of magnitude; read-out: Kd for copper bound to ceruloplasmin; cited from earlier work
T1 sequence (P00450 20-1065): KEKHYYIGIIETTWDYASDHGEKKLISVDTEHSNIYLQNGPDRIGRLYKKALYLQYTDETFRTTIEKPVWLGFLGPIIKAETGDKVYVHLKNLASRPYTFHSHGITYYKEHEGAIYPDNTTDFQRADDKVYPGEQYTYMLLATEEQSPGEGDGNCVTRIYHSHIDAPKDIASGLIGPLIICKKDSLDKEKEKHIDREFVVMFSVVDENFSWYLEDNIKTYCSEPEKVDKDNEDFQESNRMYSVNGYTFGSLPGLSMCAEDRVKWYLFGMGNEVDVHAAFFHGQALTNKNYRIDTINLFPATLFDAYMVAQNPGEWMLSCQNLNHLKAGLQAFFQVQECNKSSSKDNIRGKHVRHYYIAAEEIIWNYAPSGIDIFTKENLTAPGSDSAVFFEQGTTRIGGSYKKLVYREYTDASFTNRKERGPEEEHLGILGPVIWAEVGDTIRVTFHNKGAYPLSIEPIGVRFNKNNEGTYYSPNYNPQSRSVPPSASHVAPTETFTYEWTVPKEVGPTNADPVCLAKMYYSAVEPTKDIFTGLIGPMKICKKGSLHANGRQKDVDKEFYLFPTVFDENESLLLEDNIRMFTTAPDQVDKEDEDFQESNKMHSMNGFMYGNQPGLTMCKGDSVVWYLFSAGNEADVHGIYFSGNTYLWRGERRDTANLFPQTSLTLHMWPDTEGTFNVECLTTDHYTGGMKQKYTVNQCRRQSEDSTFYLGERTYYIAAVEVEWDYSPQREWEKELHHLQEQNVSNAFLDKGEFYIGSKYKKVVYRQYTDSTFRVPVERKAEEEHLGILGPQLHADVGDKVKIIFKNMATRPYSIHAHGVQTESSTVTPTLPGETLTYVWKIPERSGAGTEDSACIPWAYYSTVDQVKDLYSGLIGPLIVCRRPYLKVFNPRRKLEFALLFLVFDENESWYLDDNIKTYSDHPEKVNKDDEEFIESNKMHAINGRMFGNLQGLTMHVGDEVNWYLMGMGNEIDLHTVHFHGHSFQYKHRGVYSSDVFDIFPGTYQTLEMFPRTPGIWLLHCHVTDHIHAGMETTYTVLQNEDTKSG

Sequence of apo-glucose dehydrogenase (P13650 25-478): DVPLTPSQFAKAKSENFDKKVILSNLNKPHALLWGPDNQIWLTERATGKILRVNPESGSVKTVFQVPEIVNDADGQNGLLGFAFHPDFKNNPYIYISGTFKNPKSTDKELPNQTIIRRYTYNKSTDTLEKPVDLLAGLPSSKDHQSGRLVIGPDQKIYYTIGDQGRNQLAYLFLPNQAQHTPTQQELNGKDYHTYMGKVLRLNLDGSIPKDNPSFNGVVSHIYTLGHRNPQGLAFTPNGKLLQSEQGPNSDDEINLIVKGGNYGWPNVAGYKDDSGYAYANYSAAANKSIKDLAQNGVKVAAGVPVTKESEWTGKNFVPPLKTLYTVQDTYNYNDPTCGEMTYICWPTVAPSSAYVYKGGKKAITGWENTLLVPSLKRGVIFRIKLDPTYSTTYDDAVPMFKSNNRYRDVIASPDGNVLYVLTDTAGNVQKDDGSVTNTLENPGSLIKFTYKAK

Row | SMILES | outward current on addition of co-factor ([1]; FIG. 10, with PQQ) | outward current on addition of co-factor ([1]; FIG. 17, PQQ added to apo-enzyme in doses from 100 pM to 100 nM) | Kd (ceruloplasmin)
1 | O=C(O)c1cc(C(=O)O)c2c(n1)C(=O)C(=O)c1cc(C(=O)O)[nH]c1-2 [PQQ] | outward current (more negative) results | increase in the measurement of outward current | –
2 | [Cu] [copper] | – | – | ~0.01 nM

From patent publication US20070209950A1, “METHODS AND DEVICES FOR THE DETECTION AND MEASUREMENT OF FREE METALS IN FLUIDS AND METHODS FOR DIAGNOSING METAL-RELATED DISEASES AND FOR DETERMINING PHARMACOLOGIC DOSING REGIMENS” (priority 2006, published 2007)
